Source: patent publication EP1374681A1, “Process for identifying fungicidally active compounds” (Bayer CropScience AG, priority 2002, dated 2004)

Columns and labels:
Phosphomannomutase = molecular target: T1, Phosphomannomutase (Saccharomyces cerevisiae, UniProt P07283); assay: Phosphomannomutase inhibition test, coupled fluorescence assay (NADPH) in 384-well MTP; format: biochemical; settings: negative decadic logarithm of the molar IC50 (50 % inhibition of the enzyme)
T1 construct: made in house; host or cells: E. coli BL21 (DE3), plasmid pSec53 (pGEX-4T-1)
T1 sequence (P07283 1-254): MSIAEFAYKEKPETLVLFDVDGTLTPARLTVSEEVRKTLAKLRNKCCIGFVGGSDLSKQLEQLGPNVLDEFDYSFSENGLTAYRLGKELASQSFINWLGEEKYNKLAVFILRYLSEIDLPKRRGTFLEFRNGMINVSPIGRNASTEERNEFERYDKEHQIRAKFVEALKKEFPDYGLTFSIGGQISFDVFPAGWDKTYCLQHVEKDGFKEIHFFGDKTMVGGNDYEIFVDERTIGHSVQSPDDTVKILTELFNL
Experimental: Die Messung kann auch in für HTS- oder UHTS-Assays gängigeren Formaten erfolgen, z.B. in Mikrotiterplatten, in denen z.B. ein Gesamtvolumen von 5 bis 50 µl pro Ansatz bzw. pro Well vorgelegt wird und die einzelnen Komponenten in einer der vorstehend angegebenen Endkonzentrationen vorliegen (vgl. Beispiel 2). Dabei wird die zu testende, potentiell die Aktivität des Enzyms inhibierende oder aktivierende Verbindung (Kandidatenmolekül) z.B. in einer geeigneten Konzentration im oben angegebenen Testpuffer enthaltend D-Mannose-1-phosphat vorgelegt. Dann wird das erfindungsgemäße Polypeptid in oben genanntem Testpuffer, enthaltend NADP^+, Glucose und die für den gekoppelten Assay notwendigen Hilfsenzyme Phosphoglucose Isomerase und Glucose-6-phosphat Dehydrogenase zugegeben und die Reaktion damit gestartet. Der Ansatz wird dann z.B. bis zu 2 oder 3 Stunden bei einer geeigneten Temperatur inkubiert und die Fluoreszenzzunahme bei einer Anregungswellenlänge von 360 nm und einer Emissionswellenlänge von 460 nm gemessen.
Eine weitere Messung erfolgt in einem entsprechenden Ansatz, jedoch ohne Zugabe eines Kandidatenmoleküls und ohne Zugabe eines erfindungsgemäßen Polypeptids (Negativkontrolle). Eine weitere Messung erfolgt wiederum bei Abwesenheit eines Kandidatenmoleküls, jedoch bei Anwesenheit des erfindungsgemäßen Polypeptids (Positivkontrolle). […]

Phytophtora infectans = assay: Test of fungicidal action (fungal growth inhibition vs. untreated control; ED50 and Wirkungsgrad); format: cell-based
Experimental: Dazu können z.B. in die Kavitäten von Mikrotiterplatten eine Lösung des zu prüfenden Wirkstoffs pipettiert werden. Nachdem das Lösungsmittel abgedampft war, wird zu jeder Kavität Medium hinzugefügt. Das Medium wird vorher mit einer geeigneten Konzentration von Sporen bzw. Mycel des zu prüfenden Pilzes versetzt. Die resultierenden Konzentrationen des Wirkstoffes betragen z.B. 0,1, 1, 10 und 100 ppm.
Die Platten werden anschließend auf einem Schüttler bei einer Temperatur von 22°C inkubiert, bis in der unbehandelten Kontrolle ein ausreichendes Wachstum feststellbar ist.
Die Auswertung erfolgt dann photometrisch bei einer Wellenlänge von 620 nm. Aus den Messdaten der verschiedenen Konzentrationen kann die Wirkstoffdosis bestimmt werden, die zu einer 50 %igen Hemmung des Pilzwachstums gegenüber der unbehandelten Kontrolle führt (ED50).
Ein anderes Verfahren zur Prüfung der fungiziden Wirkung beruht darauf, die protektive Wirkung der zu testenden Verbindung an einer Pflanze zu testen. Dazu wird die Pflanze mit einer Lösung des zu prüfenden Wirkstoffs besprüht und anschließend mit einer Lösung von Pilzssporen inokuliert und über mehrere Tage hinweg beobachtet. Es kann dann im Vergleich zu einer Pflanze, die nicht vorab mit einer Wirkstofflösung behandelt wurde, festgestellt werden, ob der zu prüfende Wirkstoff den Befall bzw. die Ausbreitung des Pilzes verhindert oder mindert.
Auch hier kann die Wirkstoffkonzentration bestimmt werden, die zu einer 50 %igen Hemmung des Pilzwachstums gegenüber der unbehandelten Kontrolle führt (ED50).
Weiterhin kann als Größe zur Beurteilung einer fungiziden Wirkung der Wirkungsgrad herangezogen werden, wobei 0 % für einen Wirkungsgrad steht, der demjenigen der Kontrolle entspricht, während ein Wirkungsgrad von 100 % bedeutet, daß kein Befall beobachtet wird.
In die Kavitäten von Mikrotiterplatten wurde eine methanolische Lösung des anhand eines erfindungsgemäßen Verfahrens identifizierten Wirkstoffs (Tab. I, Bsp. 2), versetzt mit einem Emulgator, pipettiert. […]

Compound: C[n+]1ccc(/C=C/c2ccc(N(c3ccc(/C=C/c4cc[n+](C)cc4)cc3)c3ccc(N(c4ccc(/C=C/c5cc[n+](C)cc5)cc4)c4ccc(/C=C/c5cc[n+](C)cc5)cc4)cc3)cc2)cc1 [Beispiel 2]
- pI50 (Phosphomannomutase): 4,9
- ED50 (Phytophtora infectans; Phytophtora infectans, 50 % inhibition of fungal growth vs. untreated control): 500 ppm
- WG (Phytophtora infectans; Phytophtora infectans, Wirkungsgrad: 0 % = like control, 100 % = no infestation): 33%
- fungizide Wirkung (Phytophtora infectans; at the application rate given in Tabelle II): deutlich fungizide Wirkung
